# Patent EP0497091A1, “Bridged cyclic ketal derivatives” (GLAXO GROUP LIMITED, priority 1991, dated 1992)
# Target: T1, squalene synthase (Rattus norvegicus, UniProt Q02769)
# T1 construct: from tissue; host or cells: rat liver homogenate
# T1 sequence (Q02769 1-416): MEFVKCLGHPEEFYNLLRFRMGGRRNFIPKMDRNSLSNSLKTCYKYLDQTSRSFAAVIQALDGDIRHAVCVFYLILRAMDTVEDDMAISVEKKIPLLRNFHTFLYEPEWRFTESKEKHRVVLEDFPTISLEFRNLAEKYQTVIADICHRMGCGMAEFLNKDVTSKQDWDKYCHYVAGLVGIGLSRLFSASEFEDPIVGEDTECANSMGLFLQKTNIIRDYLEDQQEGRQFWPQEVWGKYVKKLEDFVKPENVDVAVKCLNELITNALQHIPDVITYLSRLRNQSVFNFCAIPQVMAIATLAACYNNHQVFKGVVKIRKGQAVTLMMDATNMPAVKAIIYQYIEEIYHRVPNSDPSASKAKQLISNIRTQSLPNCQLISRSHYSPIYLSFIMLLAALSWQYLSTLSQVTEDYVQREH
# Assay: Inhibition of squalene synthase ([14C]squalene production from [2-14C]farnesylpyrophosphate)
# Assay type: biochemical
# Details: not given
# Description: A. Biller et al. in J. […] [¹⁴C]squalene is separated from unreacted substrate on thin layer chromatography plates and determined by liquid scintillation counting. […] Acta, Volume 877, 50-60 (1986) and modified to include measurement of cholesterol by high performance liquid chromatography (h.p.l.c.). […] A. […] [¹⁴C] Squalene was separated from unreacted substrate on thin layer chromatography plates and determined by liquid scintillation counting. Inhibition of squalene synthase was quantified by incubating rat liver homogenate with various concentrations of the test compound in the presence of [2-¹⁴C] farnesylpyrophosphate. The concentration of compound giving 50% inhibition of [¹⁴C] squalene production in a 30 minute assay was taken as the IC₅₀ value.
row,Structure (SMILES),IC50 [nM]
1,"CCC(C)CC(C)CCC(=O)OC1C(O)C2(CCC(C)=CC(C)Cc3ccccc3)OC(C(=O)O)C(O)(C(=O)O)C1(C(=O)O)O2 (mixture of isomers) [Example 15, [1S-[1α[(Z/E),5S*],3α,4β,5α,6α(4S*6R*),7β]] 1-(3,5-Dimethyl-6-phenyl-3-hexenyl)-4,6,7-trihydroxy-2,8-dioxabicyclo[3.2.1]octane-3,4,5-tricarboxylic acid, 6-(4,6-dimethyloctanoate)]",< 100
2,"CC[C@H](C)C[C@H](C)/C=C/C(=O)O[C@@H]1[C@@H](O)[C@@]2(C/C=C(\C)C(=O)[C@H](C)Cc3ccccc3)O[C@H](C(=O)O)[C@@](O)(C(=O)O)[C@]1(C(=O)O)O2 (relative stereo) [Example 2, [1S-[1α[(E),5S*],3α,4β,5α,6α(2E,4R*,6R*),7β]] 1-(3,5-Dimethyl-4-oxo-6-phenyl-2-hexenyl)-4,6,7-trihydroxy-2,8-dioxabicyclo[3.2.1]octane-3,4,5-tricarboxylic acid, 6-(4,6-dimethyl-2-octenoate)]",< 100
3,"CC[C@H](C)C[C@H](C)/C=C/C(=O)O[C@@H]1[C@@H](O)[C@@]2(C/C=C(\C)[C@@H](O)[C@H](C)Cc3ccccc3)O[C@H](C(=O)O)[C@@](O)(C(=O)O)[C@]1(C(=O)O)O2 (relative stereo) [Example 5, [1S-[1α[(E),4R*,5S*],3α,4β,5α,6α(2E,4R*,6R*),7β]] 1-(4-Hydroxy-3,5-dimethyl-6-phenyl-2-hexenyl)-4,6,7-trihydroxy-2,8-dioxabicyclo[3.2.1]octane-3,4,5-tricarboxylic acid, 6-(4,6-dimethyl-2-octenoate)]",< 100
4,"CC[C@H](C)C[C@H](C)/C=C/C(=O)O[C@@H]1[C@@H](O)[C@@]2(C/C=C(\C)C[C@H](C)Cc3ccccc3)O[C@H](C(=O)O)[C@@](O)(C(=O)O)[C@]1(C(=O)O)O2 (relative stereo) [Example 9, [1S-[1α[(E),5R*],3α,4β,5α,6α(2E,4R*,6R*),7β]] 1-(3,5-Dimethyl-6-phenyl-2-hexenyl)-4,6,7-trihydroxy-2,8-dioxabicyclo[3.2.1]octane-3,4,5-tricarboxylic acid, 6-(4,6-dimethyl-2-octenoate)]",< 100
5,"CCC(CC[C@]12O[C@H](C(=O)O)[C@@](O)(C(=O)O)[C@](C(=O)O)(O1)[C@H](OC(=O)/C=C/[C@@H](C)C[C@@H](C)CC)[C@H]2O)C(=O)[C@H](C)Cc1ccccc1 (relative stereo) [Example 10, [1S-[1α(3R*S*,5S*),3α,4β,5α,6α(2E,4R*,6R*),7β]] 1-(3-Ethyl-5-methyl-4-oxo-6-phenylhexyl)-4,6,7-trihydroxy-2,8-dioxabicyclo[3.2.1]octane-3,4,5-tricarboxylic acid, 6-(4,6-dimethyl-2-octenoate)]",< 100
6,"CC[C@H](C)C[C@H](C)CCC(=O)O[C@@H]1[C@@H](O)[C@@]2(C/C=C(\C)[C@@H](O)[C@H](C)Cc3ccccc3)O[C@H](C(=O)O)[C@@](O)(C(=O)O)[C@]1(C(=O)O)O2 (relative stereo) [Example 14, [1S-[1α[(E),4R*,5S*],3α,4β,5α,6α(4S*,6R*),7β]] 1-(3,5-Dimethyl-4-hydroxy-6-phenyl-2-hexenyl)-4,6,7-trihydroxy-2,8-dioxabicyclo[3.2.1]octane-3,4,5-tricarboxylic acid, 6-(4,6-dimethyloctanoate)]",< 100
7,"C=C(CC[C@]12O[C@H](C(=O)O)[C@@](O)(C(=O)O)[C@](C(=O)O)(O1)[C@H](OC(=O)C1CCCCC1)[C@H]2O)[C@@H](OC(C)=O)[C@H](C)Cc1ccccc1 (relative stereo) [Example 43, [1S-[1α(4R*,5S*),3α,4β,5α,6α,7β]] 1-(4-Acetyloxy-5-methyl-3-methylene-6-phenylhexyl)-4,6,7-trihydroxy-2,8-dioxabicyclo[3.2.1]octane-3,4,5-tricarboxylic acid, 6-(cyclohexanecarboxylate)]",< 100
8,"C=C(CC[C@]12O[C@H](C(=O)O)[C@@](O)(C(=O)O)[C@](C(=O)O)(O1)[C@H](OC(=O)c1ccccc1)[C@H]2O)[C@@H](OC(C)=O)[C@H](C)Cc1ccccc1 (relative stereo) [Example 47, [1S-[4α(4R*,5S*),3α,4β,5α,6α,7β]] 1-(4-Acetyloxy-5-methyl-3-methylene-6-phenylhexyl)-4,6,7-trihydroxy-2,8-dioxabicyclo[3.2.1]octane-3,4,5-tricarboxylic acid, 6-benzoate]",< 100
9,"C=C(CC[C@]12O[C@H](C(=O)O)[C@@](O)(C(=O)O)[C@](C(=O)O)(O1)[C@H](OC(=O)/C=C/c1ccccc1)[C@H]2O)[C@@H](OC(C)=O)[C@H](C)Cc1ccccc1 (relative stereo) [Example 49, [1S-[1α(4R*,5S*),3α,4β,5α,6α(2E),7β]] 1-(4-Acetyloxy-5-methyl-3-methylene-6-phenylhexyl)-4,6,7-trihydroxy-2,8-dioxabicyclo[3.2.1]octane-3,4,5-tricarboxylic acid, 6-(3-phenyl-2-propenoate)]",< 100
10,"C=C(CC[C@]12O[C@H](C(=O)O)[C@@](O)(C(=O)O)[C@](C(=O)O)(O1)[C@H](OC(=O)CCCC(C)=O)[C@H]2O)[C@@H](OC(C)=O)[C@H](C)Cc1ccccc1 (relative stereo) [Example 51, [1S-[1α(4R*,5S*),3α,4β,5α,6α,7β]] 1-(4-Acetyloxy-5-methyl-3-methylene-6-phenylhexyl)-4,6,7-trihydroxy-2,8-dioxabicyclo[3.2.1]octane-3,4,5-tricarboxylic acid, 6-(5-oxo-hexanoate)]",< 100
11,"C=C(CC[C@]12O[C@H](C(=O)O)[C@@](O)(C(=O)O)[C@](C(=O)O)(O1)[C@H](OC(=O)OC)[C@H]2O)[C@@H](OC(C)=O)[C@H](C)Cc1ccccc1 (relative stereo) [Example 56, [1S-[1α(4R*,5S*),3α,4β,5α,6α,7β]] 1-(4-Acetyloxy-5-methyl-3-methylene-6-phenylhexyl)-4,7-dihydroxy-6-[(methoxycarbonyl)oxy]-2,8-dioxabicyclo[3.2.1]octane-3,4,5-tricarboxylic acid]",< 100
12,"C=C(CC[C@]12O[C@H](C(=O)O)[C@@](O)(C(=O)O)[C@](C(=O)O)(O1)[C@H](OC(=O)OCCCC)[C@H]2O)[C@@H](OC(C)=O)[C@H](C)Cc1ccccc1 (relative stereo) [Example 60, [1S-[1α(4R*,5S*)3α,4β,5α,6α,7β]] 1-(4-Acetyloxy-5-methyl-3-methylene-6-phenylhexyl)-6-[(butoxycarbonyl)oxy]-4,7-dihydroxy-2,8-dioxabicyclo[3.2.1]octane-3,4,5-tricarboxylic acid]",< 100
13,"C=C(CC[C@]12O[C@H](C(=O)O)[C@@](O)(C(=O)O)[C@](C(=O)O)(O1)[C@H](OC(=O)NCC)[C@H]2O)[C@@H](OC(C)=O)[C@H](C)Cc1ccccc1 (relative stereo) [Example 66, [1S-[1α(4R*,5S*),3α,4β,5α,6α,7β]] 1-(4-Acetyloxy-5-methyl-3-methylene-6-phenylhexyl)-6-[[(ethylamino)carbonyl]oxy]4,7-dihydroxy-2,8-dioxabicyclo[3.2.1]octane-3,4,5-tricarboxylic acid]",< 100
14,"C=C(CC[C@]12O[C@H](C(=O)O)[C@@](O)(C(=O)O)[C@](C(=O)O)(O1)[C@H](OC(=O)NC)[C@H]2O)[C@@H](OC(C)=O)[C@H](C)Cc1ccccc1 (relative stereo) [Example 67, [1S-[1α(4R*,5S*),3α,4β,5α,6α,7β]] 1-(4-Acetyloxy-5-methyl-3-methylene-6-phenylhexyl)-4,7-dihydroxy-6-[[(methylamino)carbonyl]oxy]-2,8-dioxabicyclo[3.2.1]octane-3,4,5-tricarboxylic acid]",< 100

# Same assay, conditions: rat liver homogenate; [2-¹⁴C] farnesylpyrophosphate as substrate; 50% inhibition of [¹⁴C] squalene production in a 30 minute assay; read-out: IC₅₀
row,Structure (SMILES),IC50 [nM]
1,"CCC(C)CC(C)/C=C/C(=O)OC1C(O)C2(CCC(C)C(=O)C(C)Cc3ccccc3)OC(C(=O)O)C(O)(C(=O)O)C1(C(=O)O)O2 (single isomer, unassigned) [Example 6, [1S-[1α[3R*(S*),5S*],3α,4β,5α,6α(2E,4R*,6R*),7β]] 1-(3,5-Dimethyl-4-oxo-6-phenylhexyl)-4,6,7-trihydroxy-2,8-dioxabicyclo[3.2.1]octane-3,4,5-tricarboxylic acid, 6-(4,6-dimethyl-2-octenoate), isomer 1 and isomer 2]",< 100
2,"CCC(C)CC(C)C=CC(=O)OC1C(O)C2(CCC(C)C(O)C(C)Cc3ccccc3)OC(C(=O)O)C(O)(C(=O)O)C1(C(=O)O)O2 (single isomer, unassigned) [Example 7, [1S-[1α[3R*(S*),4R*,5S*],3α,4β,5α,6α(2E,4R*,6R*),7β]] and [1S-[1α[3R*(S*),4S*,5S*],3α,4β,5α,6α(2E,4R*,6R*),7β]] 1-(4-Hydroxy-3,5-dimethyl-6-phenylhexyl)-4,6,7-trihydroxy-2,8-dioxabicyclo[3.2.1]octane-3,4,5-tricarboxylic acid, 6-(4,6-dimethyl-2-octenoate), isomer 1 and isomer 2]",< 100
